How the values were obtained:
ABCG2 (BCRP/MXR) [1] = biological target: T1, ABCG2 (BCRP/MXR) (Homo sapiens, UniProt Q9UNQ0); assay: competition of […]-IAAP photoaffinity labeling in membranes; also effect on vanadate-sensitive ATPase activity; format: binding; design: Crude membranes from High Five insect cells expressing ABCG2
T1 sequence (Q9UNQ0 1-655): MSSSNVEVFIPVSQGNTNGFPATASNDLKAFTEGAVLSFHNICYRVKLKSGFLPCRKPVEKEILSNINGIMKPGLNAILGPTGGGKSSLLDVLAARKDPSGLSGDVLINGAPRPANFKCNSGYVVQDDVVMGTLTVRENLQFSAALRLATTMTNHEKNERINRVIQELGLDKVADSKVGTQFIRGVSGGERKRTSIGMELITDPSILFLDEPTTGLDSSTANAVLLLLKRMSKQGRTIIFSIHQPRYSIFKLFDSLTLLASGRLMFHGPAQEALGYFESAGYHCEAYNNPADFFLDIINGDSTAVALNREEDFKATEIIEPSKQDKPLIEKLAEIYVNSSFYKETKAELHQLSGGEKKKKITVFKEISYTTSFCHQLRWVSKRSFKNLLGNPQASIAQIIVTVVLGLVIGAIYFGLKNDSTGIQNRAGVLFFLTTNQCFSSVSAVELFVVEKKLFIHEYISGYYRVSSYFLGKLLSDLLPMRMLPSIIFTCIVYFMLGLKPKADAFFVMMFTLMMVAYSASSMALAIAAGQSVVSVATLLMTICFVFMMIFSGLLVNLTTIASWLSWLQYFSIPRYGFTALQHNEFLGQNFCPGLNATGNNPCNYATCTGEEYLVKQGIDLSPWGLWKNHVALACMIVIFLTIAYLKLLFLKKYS

ABCG2 (BCRP/MXR) [2] = biological target: T1, ABCG2 (BCRP/MXR); assay: reversal of mitoxantrone resistance in ABCG2-transfected versus mock HEK293 cells (MTT), […]; format: cell-based; design: HEK293/ABCG2-R2 stably transfected cells

SMILES	competition of [125I]-IAAP photoaffinity labeling in membranes; also effect on v (ABCG2 (BCRP/MXR) [1])	(fold-reversal) / HEK293/ABCB1 (ABCG2 (BCRP/MXR) [2])
Cc1cc(Nc2ncc(Cl)c(Nc3ccccc3S(=O)(=O)C(C)C)n2)c(OC(C)C)cc1C1CCNCC1 [Ceritinib, 5-chloro-N2-(2-isopropoxy-5-methyl-4-(piperidin-4-yl)phenyl)-N4-(2-(isopropylsulfonyl)phenyl)pyrimidine-2,4-diamine]	ceritinib binds with high affinity to both the ABCB1 and ABCG2 substrate-binding sites	–
COc1ccc2c3c([nH]c2c1)[C@H](C=C(C)C)N1C(=O)[C@@H]2CCCN2C(=O)[C@@H]1C3 [Fumitremorgin C]	–	26.81 fold-reversal

— article PMC4792582, “Effect of ceritinib (LDK378) on enhancement of chemotherapeutic agents in ABCB1 and ABCG2 overexpressing cells in vitro and in vivo” (Oncotarget, 2015)
